Values after ≈ are worked out from the molar mass of the structure shown. Values joined by “and” are separate entries in the source; they are usually repeats but may differ in a detail not shown here. Equal values may be shown once. Read-outs that look alike come from different tables or passages of the source.
Legend:
HIV (LAV-1) = experiment: Median effective antiviral concentration against HIV (Table 5); assay type: cell-based; details: HIV (LAV-1) vs Friend (EY-10) or Cas-Br-M
in vivo = assay type: in vivo, rhesus monkey; details: rhesus monkeys, oral dose of 920 mg
Method: In rhesus monkeys, the pharmocokinetic parameters after an oral dose of […] of CS-87 are as follows: […]

HIV-1 and SIV = experiment: Effect of delayed treatment on replication of HIV-1 and SIV in human PBM cells (FIG. 7); assay type: cell-based, HIV-1; SIV
Source text: (§1) A comparison of the differences in median effective an tiviral concentrations between human, non-human primate, and murine retroviruses is shown in Table 5. […] A further comparison of the activity of several nucleoside analogues, including CS-87, against HIV-1 and SIV in human PBM cells is shown in FIG. 6. The effect of delayed treatment with AZT, CS-87 or CS-91 on the replication of HIV-1 and SIV in human PBM cells is shown in FIGS. 7a, b, and c.

sarcoma 180 cells = details: in vitro; Lin et al.; cited from earlier work
HIV = details: in vitro
HIV-1 p24 = experiment: Inhibition of HIV replication in human PBM cells, p24 RIA (Table 3)
HIV-1 (Strain RF-II) = experiment: Antiviral activity against HIV-1 in HeLa-T4 cells (Table 4); assay type: cell-based
Method: Evaluation in Hela-T4 cells infected with HIV-1 (Strain RF-II)
HeLa-T4 cells (described in Cell 47: 333, 1986) are maintained in Dulbecco's Modified Eagle medium containing 10% inactivated fetal calf serum, penicillin (100 U/ml) and streptomycin (100 μg/ml), and the antibiotic G418 (1 mg/ml). The cells are seeded onto a 96-well plate (2×10^4 cells/well per 0.1 ml), and two days later, the supernatant is removed and the virus added. After adsorption for 45 minutes, the inoculum is removed and the cells washed with phosphate-buffered saline (pH 7.2). The compounds at different concentration are then added in maintenance medium (containing 2% serum). […] The cells are fixed with a mixture of 5% glacial acetic acid/95% Ethanol for 15 minutes, and then stained with Giemsa (20% in PSB) for 4 hours. The plates are then washed and dried. The foci are then enumerated with a dissecting stereomicroscope.

HIV-1 [1] = system: HIV-1
NIH Swiss mice = details: 67 days; for Hct / Hgb / MCH / MCHC / MCV / PLT / RBC / RDW / WBC: oral 0.5 mg/ml ad libitum
HIV-1 (Strain HTLV-III) = experiment: Antiviral activity against HIV-1 in ATH-8 cells (Table 4)
HIV p24 and p41 = experiment: Inhibition of HIV replication in human PBM cells, western blot analysis (Table 3)
Friend (EY-10) = experiment: Median effective antiviral concentration against Friend virus (Table 5); assay type: cell-based, murine retrovirus; details: unidentified retrovirus, in Mus musculus
Source text: as §1

measles = details: Colla et al.; cited from earlier work
[2] = system: Mouse ecotropic (Cas-Br-M); experiment: Median effective antiviral concentration against mouse ecotropic virus (Table 5); assay type: cell-based, murine retrovirus; details: unidentified retrovirus
Source text: as §1

[3] = system: liver enzymes SGPT and SGOT; assay type: in vivo, rhesus monkey; details: rhesus monkeys, FIG. 4
polio virus-1 = details: cited from earlier work
reovirus-1 = details: Colla et al.; cited from earlier work
SIV (SMM) = experiment: Median effective antiviral concentration against SIV (Table 5); assay type: cell-based, simian immunodeficiency virus
Source text: as §1

[4] = Effect on weight of uninfected BALB/c mice (FIG. 3); assay type: in vivo, mouse; details: compared with each other and control
[5] = system: two particular enzymes isolated from L1210 cells; details: Lin et al.; cited from earlier work
uninfected cells = details: tested up to 200 μM
HIV-1 [6] = experiment: microbe, parasite or virus in culture; details: Human immunodeficiency virus 1, PBMC, read-out: PBM (EC50)
[7] = Human immunodeficiency virus 1, PBMC, in Homo sapiens, read-out: RIA p24 % Inhibition

[N-]=[N+]=N[C@H]1C[C@H](n2ccc(=O)[nH]c2=O)O[C@@H]1CO [CS-87, 3'-azido-2',3'-dideoxyuridine]
effectiveness against HIV (LAV-1) compared with Friend or mouse ecotropic virus (HIV (LAV-1)): much more effective | AUC (in vivo; rhesus monkey, in vivo): 113 µg·h/mL | CL/F (in vivo; rhesus monkey, in vivo, read-out: clearance (converted)): 29 mL/min/kg | k el (in vivo; rhesus monkey, in vivo, read-out: elimination rate constant, k (converted)): 0.000397 s⁻¹ | half-life (in vivo; rhesus monkey, in vivo, read-out: elimination t1/2 k (converted)): 28.8 min | Vd/F (in vivo; rhesus monkey, in vivo, read-out: volume of distribution (Vss)): 1.2 L/kg | absorption rate constant (ka) (in vivo): 1.73 h⁻¹ | absorption rate t1/2 (in vivo): 24 min | effect of delayed treatment on replication of HIV-1 and SIV (HIV-1 and SIV): time of administration is critical to the effectiveness of the treatment | activity against sarcoma 180 cells (sarcoma 180 cells): inactive | activity against HIV, in words (HIV): selective anti-HIV-1 activity | RIA p24 (Dupont kit) (HIV-1 p24; 0.1 μM): 21.86 ng/mL | RIA p24 (Dupont kit) (HIV-1 p24; 1 μM): 11.76 ng/mL | RIA p24 (Dupont kit) (HIV-1 p24; 10 μM): 0.65 ng/mL | inhibition at 0.1 µM (HIV-1 p24; [7]): 9.2% | inhibition at 1 µM (HIV-1 p24; [7]): 51.2% | inhibition at 10 µM (HIV-1 p24; [7]): 97.3% | activity compared to d2C in HeLa-T4 cells (HIV-1 (Strain RF-II)): less active | EC50 (HIV-1 (Strain RF-II); Human immunodeficiency virus 1, HeLaT4, HIV-1): 1240 nM | activity compared to d2C in PBM cells (HIV-1 [1]): less active | Hct (NIH Swiss mice; Mean of group): 42.4% | Hgb (NIH Swiss mice; Mean of group): 14.0 g/dL | MCH (NIH Swiss mice; Mean of group): 16.7 pg | MCHC (NIH Swiss mice; Mean of group): 33.1 g/dL | MCV (NIH Swiss mice; Mean of group): 50.4 fL | PLT (NIH Swiss mice; Mean of group): 1.3 × 10^6 | RBC (NIH Swiss mice; Mean of group): 8.4 × 10^6 | RDW (NIH Swiss mice; Mean of group): 26.0% | WBC (NIH Swiss mice; Mean of group): 8.0 × 10^3 | toxicity compared to AZT (RBC and MCV values) (NIH Swiss mice; NIH Swiss mice, oral 0.5 mg/ml): significantly less toxicity | Hct (NIH Swiss mice; individual mouse): 37.2% and 44.4% and 42.3% and 45.7% | Hgb (NIH Swiss mice; individual mouse): 12.9 g/dL and 14.1 g/dL and 14.2 g/dL and 14.8 g/dL | MCH (NIH Swiss mice; individual mouse): 16.9 pg and 16.4 pg and 16.6 pg and 16.8 pg | MCHC (NIH Swiss mice; individual mouse): 34.6 g/dL and 31.8 g/dL and 33.5 g/dL and 32.4 g/dL | MCV (NIH Swiss mice; individual mouse): 48.8 fL and 51.7 fL and 49.4 fL and 51.8 fL | PLT (NIH Swiss mice; individual mouse): 1.158 × 10^6 and 1.35 × 10^6 and 1.305 × 10^6 and 1.361 × 10^6 | RBC (NIH Swiss mice; individual mouse): 7.6 × 10^6 and 8.6 × 10^6 and 8.8 × 10^6 | RDW (NIH Swiss mice; individual mouse): 34.3% and 16.8% and 37.7% and 15.3% | WBC (NIH Swiss mice; individual mouse): 2.6 × 10^3 and 8.9 × 10^3 and 7.9 × 10^3 and 12.6 × 10^3 | activity compared to d2C in ATH-8 cells (HIV-1 (Strain HTLV-III); ATH-8 cells): comparable activity to d2C | MIC (HIV-1 (Strain HTLV-III); Human immunodeficiency virus 1, 240 h, read-out: ATH-8 (MIC)): 0.4 µM (≈ 0.101 µg/mL) | Western blot p24 (band intensity) (HIV p24 and p41; 0.1 μM): 3+ | Western blot p41 (band intensity) (HIV p24 and p41; 0.1 μM): 2+ | Western blot p24 (band intensity) (HIV p24 and p41; 1 μM): 2+ | Western blot p41 (band intensity) (HIV p24 and p41; 1 μM): 1+ | Western blot p24 (band intensity) (HIV p24 and p41; 10 μM): 0 | Western blot p41 (band intensity) (HIV p24 and p41; 10 μM): 0 | EC50 (Friend (EY-10)): > 10000 nM | activity against measles (measles): inactive | EC50 [2]: 9100 nM | toxicity by oral (po) vs intravenous administration [3]: less toxic than intravenous administration | activity against polio virus-1 (polio virus-1): inactive | activity against reovirus-1 (reovirus-1): inactive | effectiveness against SIV (SMM) compared with Friend or mouse ecotropic virus (SIV (SMM); SIV (SMM) vs Friend (EY-10) or Cas-Br-M): much more effective | EC50 (SIV (SMM); Simian immunodeficiency virus): 200 nM | effect on weight of uninfected BALB/c mice [4]: no significant difference | inhibitory activity towards two particular enzymes isolated from L1210 cells [5]: only marginal inhibitory activity | toxicity to the uninfected cells (uninfected cells): not toxic | EC50 (HIV-1 [6]): 180 nM

Reference: patent US4916122A, “3'-Azido-2',3'-dideoxyuridine anti-retroviral composition” (University of Georgia Research Foundation, Inc., priority 1987, dated 1990)
